The supplement of paper PMC10307832

Columns and labels:
Test in all cases: relative viability (nuclei count vs DMSO), 5 days (fraction); higher = more cells survive
Staurosporine = compound: CN[C@@H]1C[C@H]2O[C@@](C)([C@@H]1OC)n1c3ccccc3c3c4c(c5c6ccccc6n2c5c31)C(=O)NC4 [Staurosporine]
Summary of the method: (§1)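 Nuclei counted with MetaXpress define viability as the ratio of treated to vehicle wells, given as a median across plates. The lung cancer cell lines were in 1536-well plates, pinned with five √10-spaced library-drug doses and imaged at 4× after 5 days and Hoechst staining. Plates passed with control CV below 25% and at least one doubling.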

Sulindac = compound: CC1=C(CC(=O)O)c2cc(F)ccc2/C1=C\c1ccc([S+](C)[O-])cc1 [Sulindac]
Summary of the method: as §1

5-Fluorouracil = compound: O=c1[nH]cc(F)c(=O)[nH]1 [5-Fluorouracil]
Summary of the method: as §1

Sulindac + Foretinib = compound: CC1=C(CC(=O)O)c2cc(F)ccc2/C1=C\c1ccc([S+](C)[O-])cc1 [Sulindac] + COc1cc2c(Oc3ccc(NC(=O)C4(C(=O)Nc5ccc(F)cc5)CC4)cc3F)ccnc2cc1OCCCN1CCOCC1 [Foretinib] (partner 0.25 µM)
Summary of the method: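 A single step with final 0.05% Triton X-100, 1% formaldehyde and 1 ug/ml Hoechst fixed the cells and stained nuclei 5 days after treatment. Lung cancer cell lines in 1536-well plates had been treated by pin tool the day after seeding with one drug alone or a fixed anchor-drug dose plus five library-drug doses (not always all listed) in √10 steps, and nuclei were counted on 4× images. Relative viability is the ratio of nuclei in treated wells to nuclei in vehicle wells, taken as the median of duplicate plates.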

Cell Line	relative viability (Staurosporine; 0.005 µM)	relative viability (Staurosporine; 0.01581 µM)	relative viability (Staurosporine; 0.05 µM)	relative viability (Staurosporine; 0.1581 µM)	relative viability (Staurosporine; 0.5 µM)	relative viability (Sulindac; 0.08 µM)	relative viability (Sulindac; 0.253 µM)	relative viability (Sulindac; 0.8 µM)	relative viability (Sulindac; 2.53 µM)	relative viability (Sulindac; 8 µM)	relative viability (5-Fluorouracil; 0.02 µM)	relative viability (5-Fluorouracil; 0.2 µM)	relative viability (5-Fluorouracil; 0.6325 µM)	relative viability (5-Fluorouracil; 2 µM)	relative viability (Sulindac + Foretinib; first compound 0.08 µM)	relative viability (Sulindac + Foretinib; first compound 0.253 µM)	relative viability (Sulindac + Foretinib; first compound 0.8 µM)	relative viability (Sulindac + Foretinib; first compound 2.53 µM)	relative viability (Sulindac + Foretinib; first compound 8 µM)
NCI-H522	1	0.686	0.782	0.501	0.437	0.911	1.19	0.834	0.912	1.14	1.03	1	0.83	0.855	–	–	–	–	–
NCI-H1944	0.983	0.699	0.567	0.353	0.246	0.997	1.03	0.908	0.904	1.11	0.91	0.905	0.293	0.195	0.962	0.874	0.822	0.974	1.03
PC-14	0.691	0.404	0.152	0.0788	0.0565	1.11	1.14	0.786	1.08	1.18	1.02	1.13	0.898	0.552	1.07	1.14	0.671	1.04	1.01
NCI-H1650	0.684	0.372	0.314	0.15	0.0851	0.851	1.1	0.732	0.942	1.01	0.814	0.878	0.564	0.343	1.05	1.21	–	1.24	1.32
HCC-827	1.03	0.701	0.723	0.48	0.36	0.99	1.09	0.97	0.957	1.09	0.855	1.01	0.667	0.469	1.03	1.05	1.1	1.01	1.09
HCC-366	1.05	–	0.911	0.15	0.0345	1.2	1.08	0.757	1	1.08	1.03	1.02	0.687	0.138	0.838	0.964	0.999	0.994	0.998
HARA	0.696	0.387	0.36	0.219	0.108	1.1	1.01	0.899	0.979	1.11	1.03	1.33	1	0.573	1.28	1.05	0.991	0.819	1.1
NCI-H441	0.889	0.275	0.266	0.18	0.129	1.34	1.25	0.78	1.09	1.37	0.887	0.866	0.591	0.385	0.992	1.15	0.86	1	1.24
LXF-289	1.02	0.652	0.477	0.0851	0.127	1.11	1.05	0.994	1.02	1.08	0.961	0.912	0.434	0.301	0.98	1.05	0.98	1.02	1.03
SK-LU-1	0.704	0.274	0.191	0.207	0.165	1.21	1.12	0.805	0.975	1.28	0.996	1.1	0.968	0.83	0.981	0.977	0.993	0.751	0.955
CAL-12T	0.34	0.223	–	0.15	0.144	1.05	1.09	0.864	0.946	1.12	1.08	1.03	0.659	0.448	1.22	1.22	0.911	1.12	1.27
COR-L 105	0.636	0.295	0.357	0.274	0.193	1.03	0.894	0.891	0.91	1.25	0.896	0.927	0.819	0.5	0.871	0.904	1.18	0.783	1.44
NCI-H2405	–	0.209	0.158	0.13	0.118	1.05	1.09	0.958	0.944	1.16	1.01	1.17	0.956	0.75	1.03	1.08	0.981	1.03	1.09
NCI-H2228	0.735	0.471	0.407	0.145	0.107	1.2	1.08	0.916	1.03	1.18	0.976	1.02	0.75	0.458	1.02	1.07	0.773	0.751	0.899
PC-3 [JPC-3]	1.02	0.36	0.698	0.384	0.317	1.16	1.03	0.926	1.02	1.12	0.967	1.1	0.954	0.743	1.12	1.11	1.14	1.09	1.05
SW 1573	0.622	0.277	0.187	0.137	0.076	1.05	1.09	0.861	0.999	1.21	1.01	1.03	0.938	0.532	1.19	1.17	0.776	0.788	0.955
A549	0.716	0.377	0.256	0.0723	0.0395	1.13	1.04	0.754	1.05	1.17	1.08	0.854	0.338	0.136	1.04	1.12	0.653	0.975	1.12
